Measured values from US20250002480A1, “AMINOHETEROARYL KINASE INHIBITORS” (ALLORION THERAPEUTICS INC, priority 2021, published 2025).

Experiments:
Type in all cases: biochemical
CDK7/Cyclin H/MAT1 = CDK7/Cyclin H/MAT1 (Homo sapiens, UniProt P50613); assay: CDK7/Cyclin H/MAT1 in vitro kinase inhibition (Biological Example 1 of WO2022/111621)
Description: (§1) Biological activity for representative compounds of the present disclosure were tested according to those described in Biological Example 1 in PCT/CN2021/133429, published as WO2022/111621 on Jun. 2, 2022.

CDK6/Cyclin D1 = CDK6/Cyclin D1 (Homo sapiens, UniProt Q00534); assay: CDK6/Cyclin D1 in vitro kinase inhibition (Biological Example 1 of WO2022/111621)
Description: as §1

CDK4/Cyclin D1 = CDK4/Cyclin D1 (Homo sapiens, UniProt P11802); assay: CDK4/Cyclin D1 in vitro kinase inhibition (Biological Example 1 of WO2022/111621)
Description: as §1

CDK9/Cyclin T1 = CDK9/Cyclin T1 (Homo sapiens, UniProt P50750); assay: CDK9/Cyclin T1 in vitro kinase inhibition (Biological Example 1 of WO2022/111621)
Description: as §1

CDK7/Cyclin H/MAT1, sequence (P50613 whole entry): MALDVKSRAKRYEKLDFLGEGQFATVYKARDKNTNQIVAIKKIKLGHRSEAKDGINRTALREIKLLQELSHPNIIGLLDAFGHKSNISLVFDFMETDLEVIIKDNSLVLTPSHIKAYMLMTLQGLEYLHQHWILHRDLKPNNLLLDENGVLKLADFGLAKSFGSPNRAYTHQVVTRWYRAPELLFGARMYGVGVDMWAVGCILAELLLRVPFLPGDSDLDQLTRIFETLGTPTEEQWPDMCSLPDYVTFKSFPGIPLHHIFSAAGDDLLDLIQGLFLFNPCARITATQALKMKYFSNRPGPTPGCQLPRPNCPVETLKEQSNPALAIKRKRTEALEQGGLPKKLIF
CDK7/Cyclin H/MAT1, sequence (P51946 whole entry partner): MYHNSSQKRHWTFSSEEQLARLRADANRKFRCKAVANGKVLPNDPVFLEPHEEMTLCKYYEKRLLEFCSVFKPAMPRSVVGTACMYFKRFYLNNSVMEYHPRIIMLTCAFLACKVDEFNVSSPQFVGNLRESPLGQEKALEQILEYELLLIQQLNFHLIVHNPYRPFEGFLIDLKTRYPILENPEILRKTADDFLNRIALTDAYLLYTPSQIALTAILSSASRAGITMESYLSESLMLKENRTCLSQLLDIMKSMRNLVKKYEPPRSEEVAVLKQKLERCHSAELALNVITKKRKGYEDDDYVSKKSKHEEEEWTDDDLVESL
CDK7/Cyclin H/MAT1, sequence (P51948 whole entry partner): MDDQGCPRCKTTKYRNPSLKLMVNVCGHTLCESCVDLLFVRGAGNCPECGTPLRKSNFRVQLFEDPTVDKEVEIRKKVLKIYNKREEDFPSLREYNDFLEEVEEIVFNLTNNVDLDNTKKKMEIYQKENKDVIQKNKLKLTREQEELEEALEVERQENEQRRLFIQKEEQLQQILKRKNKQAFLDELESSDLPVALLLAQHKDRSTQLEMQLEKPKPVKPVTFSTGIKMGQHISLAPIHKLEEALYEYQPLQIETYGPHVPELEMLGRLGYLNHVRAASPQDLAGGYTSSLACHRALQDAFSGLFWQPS
CDK6/Cyclin D1, sequence (Q00534 whole entry): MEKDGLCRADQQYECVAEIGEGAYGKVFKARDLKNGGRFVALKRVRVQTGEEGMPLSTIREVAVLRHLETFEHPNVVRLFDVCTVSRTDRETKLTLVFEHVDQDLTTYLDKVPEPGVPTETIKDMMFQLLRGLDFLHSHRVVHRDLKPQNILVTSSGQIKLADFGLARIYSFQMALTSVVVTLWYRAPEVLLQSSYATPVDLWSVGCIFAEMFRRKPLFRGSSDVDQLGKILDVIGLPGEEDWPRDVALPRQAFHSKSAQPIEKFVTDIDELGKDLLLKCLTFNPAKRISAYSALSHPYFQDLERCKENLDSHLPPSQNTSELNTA
CDK6/Cyclin D1, sequence (P24385 whole entry partner): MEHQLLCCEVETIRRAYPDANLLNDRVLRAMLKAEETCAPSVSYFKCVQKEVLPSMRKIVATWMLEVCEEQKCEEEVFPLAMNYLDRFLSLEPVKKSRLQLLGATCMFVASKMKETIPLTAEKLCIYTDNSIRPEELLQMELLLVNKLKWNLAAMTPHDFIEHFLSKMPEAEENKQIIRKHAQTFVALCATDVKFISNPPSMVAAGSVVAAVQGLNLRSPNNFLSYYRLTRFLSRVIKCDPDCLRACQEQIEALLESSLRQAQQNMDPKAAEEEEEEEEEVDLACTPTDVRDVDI
CDK4/Cyclin D1, sequence (P11802 whole entry): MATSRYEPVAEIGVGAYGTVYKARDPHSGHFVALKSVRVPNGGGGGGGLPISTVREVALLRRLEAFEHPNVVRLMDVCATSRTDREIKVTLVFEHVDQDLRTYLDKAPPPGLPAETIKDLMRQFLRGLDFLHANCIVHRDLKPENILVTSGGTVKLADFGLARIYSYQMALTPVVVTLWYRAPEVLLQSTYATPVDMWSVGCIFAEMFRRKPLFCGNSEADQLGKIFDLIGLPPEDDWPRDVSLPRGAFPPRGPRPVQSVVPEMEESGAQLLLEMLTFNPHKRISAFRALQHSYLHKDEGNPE
CDK4/Cyclin D1, sequence (P24385 whole entry partner): as the sequence (P24385 whole entry partner) above
CDK9/Cyclin T1, sequence (P50750 whole entry): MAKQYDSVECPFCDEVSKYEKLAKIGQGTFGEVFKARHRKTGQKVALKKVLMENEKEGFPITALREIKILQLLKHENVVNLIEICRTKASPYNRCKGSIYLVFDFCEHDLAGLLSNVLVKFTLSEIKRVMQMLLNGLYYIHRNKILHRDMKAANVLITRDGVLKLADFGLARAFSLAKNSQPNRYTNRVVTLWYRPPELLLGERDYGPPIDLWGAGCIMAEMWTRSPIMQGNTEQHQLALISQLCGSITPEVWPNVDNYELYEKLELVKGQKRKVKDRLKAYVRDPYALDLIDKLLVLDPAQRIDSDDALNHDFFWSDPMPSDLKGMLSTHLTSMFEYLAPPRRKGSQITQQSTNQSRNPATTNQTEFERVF
CDK9/Cyclin T1, sequence (O60563 whole entry partner): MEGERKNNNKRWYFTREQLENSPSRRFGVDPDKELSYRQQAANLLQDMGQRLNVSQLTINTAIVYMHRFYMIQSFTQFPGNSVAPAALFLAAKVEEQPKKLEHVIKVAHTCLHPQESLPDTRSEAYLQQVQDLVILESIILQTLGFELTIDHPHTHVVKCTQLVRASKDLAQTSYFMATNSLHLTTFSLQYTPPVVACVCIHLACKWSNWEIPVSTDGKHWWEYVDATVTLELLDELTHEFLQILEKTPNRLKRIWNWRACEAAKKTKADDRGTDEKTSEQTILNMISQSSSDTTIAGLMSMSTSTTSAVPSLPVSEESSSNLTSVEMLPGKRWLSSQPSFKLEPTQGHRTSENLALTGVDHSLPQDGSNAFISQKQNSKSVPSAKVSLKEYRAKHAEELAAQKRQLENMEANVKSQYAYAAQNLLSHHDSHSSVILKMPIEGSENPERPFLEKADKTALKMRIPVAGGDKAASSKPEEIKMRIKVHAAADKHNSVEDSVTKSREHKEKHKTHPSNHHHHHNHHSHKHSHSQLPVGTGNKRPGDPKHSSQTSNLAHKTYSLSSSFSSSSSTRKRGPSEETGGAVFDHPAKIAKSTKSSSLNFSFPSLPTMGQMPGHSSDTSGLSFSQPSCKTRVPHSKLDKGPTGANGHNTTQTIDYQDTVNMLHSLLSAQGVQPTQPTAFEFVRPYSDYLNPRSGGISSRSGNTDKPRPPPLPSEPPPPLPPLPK

Row | Compound | IC50 (CDK7/Cyclin H/MAT1) | IC50 (CDK6/Cyclin D1) | IC50 (CDK4/Cyclin D1) | IC50 (CDK9/Cyclin T1)
1 | [2H]C([2H])([2H])NS(=O)(=O)c1ccc(Nc2ncc(C(F)(F)F)c(O[C@H]3CCOC[C@H]3O)n2)cc1 [Compound E2] | ≥ 1000 nM | ≥ 1000 nM | ≥ 1000 nM | 
2 | [2H]C([2H])([2H])NS(=O)(=O)c1ccc(Nc2ncc(C(F)(F)F)c(O[C@@H]3CCOC[C@H]3O)n2)cc1 [Compound E3] |  | ≥ 1000 nM |  | 
3 | [2H]C([2H])([2H])NS(=O)(=O)c1ccc(Nc2ncc(C(F)(F)F)c(O[C@H]3CCOC[C@@H]3O)n2)cc1 [Compound E4] | ≥ 1000 nM | ≥ 1000 nM | ≥ 1000 nM | 
4 | NS(=O)(=O)c1ccc(Nc2ncc(C(F)(F)F)c(O[C@@H]3CCOC[C@@H]3O)n2)cc1 [Compound E7, 4-((4-(((3S,4R)-3-hydroxytetrahydro-2H-pyran-4-yl)oxy)-5-(trifluoromethyl)pyrimidin-2-yl)amino)benzenesulfonamide] | ≥ 1000 nM |  |  | ≥ 1000 nM
